This note sets out measurements from patent US20240239795A1, “NOVEL AZAINDOLE DERIVATIVES AS ANTIVIRAL AGENTS” (Centre National de la Recherche Scientifique, priority 2021, published 2024).

The test system of assay [1] is SARS-COV2 virus, BetaCoV/France/IDF0371/2020. The experiment in a line: Antiviral activity against SARS-COV2 coronavirus in VeroE6 cells (viral RNA by qRT-PCR). Conditions: 1.25 μM, 24 h. The assay is classed as cell-based. (In general: In qPCR the cycle at which signal appears reflects the starting amount.)
Assay [2] deals with WNV virus, Kunjin strain (KUNV). The experiment in a line: Antiviral activity against the WNV virus Kunjin strain in HeLa cells (nanoluciferase reporter). The assay is classed as cell-based. Conditions: West Nile virus, KUNV-luciferase reporter virus, MOI=0.1, 24 h. (In general: In a reporter assay the amount or activity of a reporter protein is the signal.)
Assay [3] concerns MAYV virus, TRVL4576 strain. The experiment in a line: Antiviral activity against the Mayaro virus in HeLa cells (luciferase reporter). Conditions: 24 h, read-out: IC50 MAYV.
The test system of another assay is ZIKV BeH8 strain. The experiment in a line: Antiviral activity against the Zika virus in HeLa cells (viral RNA by qRT-PCR). Conditions: for IC50: Zika virus, HeLa, 24 h, read-out: IC50 ZIKV.
Assay [4] concerns CHIKV virus, LR-OPY1 strain. The experiment in a line: Antiviral activity against the Chikungunya virus in HeLa cells (luciferase/GFP reporter). Conditions: for IC50: Chikungunya virus, HeLa, 24 h, read-out: IC50 CKV.

A word on the IC50: it is the concentration that inhibits the measured activity by half.

As for `O=C(Nc1ccc(F)cc1)C1(C(=O)Nc2cccc(-c3c[nH]c4ncc(-c5ccccc5)cc34)c2)CC1` [Compound 5, Cyclopropane-1,1-dicarboxylic acid (4-fluoro-phenyl)-amide [3-(5-phenyl-1H-pyrrolo[2,3-b]pyridin-3-yl)-phenyl]-amide], the “effect on infection of the cells by the SARS-COV2 virus” value in assay [1] was “reduces the infection”.

In assay [2], `Cc1ccc(C(=O)Nc2ccc(F)c(-c3c[nH]c4ncc(-c5ccccc5)cc34)c2)c(=O)n1-c1ccc(F)cc1` [Compound 15, 1-(4-fluorophenyl)-6-methyl-2-oxo-1,2-dihydro-pyridine-3-carboxylic acid [4-fluoro-3-(5-phenyl-1H-pyrrolo[2,3-b]pyridin-3-yl)-phenyl]-amide] came in with an IC50 of 0.934 µM.

In the case of `Cc1ccc(C(=O)Nc2cccc(-c3c[nH]c4ncc(-c5ccccc5)cc34)c2)c(=O)n1-c1ccc(F)cc1` [Compound 4, 1-(4-fluorophenyl)-6-methyl-2-oxo-1,2-dihydro-pyridine-3-carboxylic acid [3-(5-phenyl-1H-pyrrolo[2,3-b]pyridin-3-yl)-phenyl]-amide], the IC50 in assay [3] amounted to 0.313 µM; in assay [2] it was 1.32 µM; with ZIKV BeH8 strain, 0.29 µM; in assay [4] it was 0.243 µM. Also, the “concentration that prevents infection of the Hela cells by the strain ZIKV BeH-8” value in the assay on ZIKV BeH8 strain (HeLa cells, MOI=0.1, 24 h) is “greater than or equal to 100 nM”. Further, the “concentration that prevents infection of the Hela cells by the Chikungunya virus” value in assay [4] (HeLa cells, MOI=0.1, 24 h) is listed as “greater than or equal to 100 nM”.

With `Nc1nc(Nc2ccc3c(c2)CC[C@@H](N2CCCC2)CC3)nn1-c1cc2c(nn1)-c1ccccc1CCC2` [R428/Bemcentinib, reference compound], the 50% inhibitory concentration (IC50) with ZIKV BeH8 strain turned out to be 0.285 µM; in assay [4], 0.239 µM.
